Consider one compound from patent US20250339444A1, “Methods and Compositions for Treating Fatty Liver and Viral Infections” (The Board of Trustees of the Leland Stanford Junior …, priority 2022, published 2025).

In one data set the test system is HepG2 cells. Nature of the data set: Steatosis in HepG2 cells cultured in fatty medium, Nile Red staining. In kind it is cell-based. As to the method: Briefly, fatty medium was prepared by 1:1 mixture of oleic acid and palmitic acid (Sigma Aldrich) with 10% FFA-free bovine serum albumin (BSA) solution (Sigma Aldrich) in PBS. Essentially, 100 mM of oleic acid and palmitic acid was prepared in 99% methanol. Palmitic acid was prepared by shaking at 500 rpm 50° C. for 20 mins. 10 mM of oleic acid and palmitic acid was incubated with 10% BSA in PBS at 50° C. for 30 mins. A final concentration of 100 uM FFA mixture was made in the final cell culture medium. Cells were incubated in fatty medium for 4 days to induce fatty liver. Cells were then treated with A27 at various concentrations for 3 days in the presence of the fatty medium. To determine the degree of steatosis, cells were stained with 1 mg/ml Nile Red solution (Sigma Aldrich) in cell culture medium for 15 mins at 37° C. and florescence signal was measured (see FIG. 1).

Data set [1] has as its system hepatic steatosis in C57/BL6 mice on high fat diet. Nature of the data set: Hepatic steatosis in C57/BL6 mice on high fat diet, liver ultrasound. In kind it is in vivo. The settings on record: 100 mg/kg/day.
The next data set has as its system HBV. Kind of data set: Reduction of HBV surface antigen in cells infected with HBV. In kind it is cell-based. The settings on record: Hepatitis B virus; cells infected with HBV (FIG. 4: engineered human liver tissue). As to the method: We then discovered that A27 had antiviral activity against HBV, showing reduction in HBV surface antigen in cells infected with HBV with an EC50 of ˜1 μM (FIG. 4).

In data set [2] the test system is SARS-CoV-2. Nature of the data set: microbe, parasite or virus in culture. It counts as cell-based. The settings on record: Severe acute respiratory syndrome coronavirus 2, read-out: EC50, SARS-CoV-2 genome replication.
For data set [3], the system named is SARS-CoV-2. Kind of data set: Combination of A27 with other antivirals against SARS-CoV-2. It counts as cell-based. The text has this: Thus, A27 can be combined with nirmatrelvir or paxlovid.
The test system of data set [4] is Venezuelan equine encephalitis virus (VEEV) TC83 strain. Nature of the data set: microbe, parasite or virus in culture. In kind it is cell-based. The settings on record: U-87 MG, read-out: EC50, VEEV genome replication.
The next data set has as its system PR8 virus (ATCC-VR-1469). Kind of data set: Influenza PR8 plaque assay in MDCK cells. In kind it is cell-based.
For a further data set, the target named is apolipoprotein B (apoB) (Homo sapiens, UniProt P04114). Kind of data set: Binding to apolipoprotein B.
In data set [5] the test system is TMPRSS2-ACE2-Huh7.5 cells. Nature of the data set: Toxicity in the SARS-CoV-2 cell culture assay. The settings on record: SARS-CoV-2 assay.
The next data set concerns RSV-luc5 virus. Kind of data set: RSV-luc5 luciferase replication assay in HeLa cells. The settings on record: human respiratory syncytial virus, 72 h, read-out: EC50, RSV replication.

Sequence of apolipoprotein B (apoB) (P04114 28-4563, species assumed): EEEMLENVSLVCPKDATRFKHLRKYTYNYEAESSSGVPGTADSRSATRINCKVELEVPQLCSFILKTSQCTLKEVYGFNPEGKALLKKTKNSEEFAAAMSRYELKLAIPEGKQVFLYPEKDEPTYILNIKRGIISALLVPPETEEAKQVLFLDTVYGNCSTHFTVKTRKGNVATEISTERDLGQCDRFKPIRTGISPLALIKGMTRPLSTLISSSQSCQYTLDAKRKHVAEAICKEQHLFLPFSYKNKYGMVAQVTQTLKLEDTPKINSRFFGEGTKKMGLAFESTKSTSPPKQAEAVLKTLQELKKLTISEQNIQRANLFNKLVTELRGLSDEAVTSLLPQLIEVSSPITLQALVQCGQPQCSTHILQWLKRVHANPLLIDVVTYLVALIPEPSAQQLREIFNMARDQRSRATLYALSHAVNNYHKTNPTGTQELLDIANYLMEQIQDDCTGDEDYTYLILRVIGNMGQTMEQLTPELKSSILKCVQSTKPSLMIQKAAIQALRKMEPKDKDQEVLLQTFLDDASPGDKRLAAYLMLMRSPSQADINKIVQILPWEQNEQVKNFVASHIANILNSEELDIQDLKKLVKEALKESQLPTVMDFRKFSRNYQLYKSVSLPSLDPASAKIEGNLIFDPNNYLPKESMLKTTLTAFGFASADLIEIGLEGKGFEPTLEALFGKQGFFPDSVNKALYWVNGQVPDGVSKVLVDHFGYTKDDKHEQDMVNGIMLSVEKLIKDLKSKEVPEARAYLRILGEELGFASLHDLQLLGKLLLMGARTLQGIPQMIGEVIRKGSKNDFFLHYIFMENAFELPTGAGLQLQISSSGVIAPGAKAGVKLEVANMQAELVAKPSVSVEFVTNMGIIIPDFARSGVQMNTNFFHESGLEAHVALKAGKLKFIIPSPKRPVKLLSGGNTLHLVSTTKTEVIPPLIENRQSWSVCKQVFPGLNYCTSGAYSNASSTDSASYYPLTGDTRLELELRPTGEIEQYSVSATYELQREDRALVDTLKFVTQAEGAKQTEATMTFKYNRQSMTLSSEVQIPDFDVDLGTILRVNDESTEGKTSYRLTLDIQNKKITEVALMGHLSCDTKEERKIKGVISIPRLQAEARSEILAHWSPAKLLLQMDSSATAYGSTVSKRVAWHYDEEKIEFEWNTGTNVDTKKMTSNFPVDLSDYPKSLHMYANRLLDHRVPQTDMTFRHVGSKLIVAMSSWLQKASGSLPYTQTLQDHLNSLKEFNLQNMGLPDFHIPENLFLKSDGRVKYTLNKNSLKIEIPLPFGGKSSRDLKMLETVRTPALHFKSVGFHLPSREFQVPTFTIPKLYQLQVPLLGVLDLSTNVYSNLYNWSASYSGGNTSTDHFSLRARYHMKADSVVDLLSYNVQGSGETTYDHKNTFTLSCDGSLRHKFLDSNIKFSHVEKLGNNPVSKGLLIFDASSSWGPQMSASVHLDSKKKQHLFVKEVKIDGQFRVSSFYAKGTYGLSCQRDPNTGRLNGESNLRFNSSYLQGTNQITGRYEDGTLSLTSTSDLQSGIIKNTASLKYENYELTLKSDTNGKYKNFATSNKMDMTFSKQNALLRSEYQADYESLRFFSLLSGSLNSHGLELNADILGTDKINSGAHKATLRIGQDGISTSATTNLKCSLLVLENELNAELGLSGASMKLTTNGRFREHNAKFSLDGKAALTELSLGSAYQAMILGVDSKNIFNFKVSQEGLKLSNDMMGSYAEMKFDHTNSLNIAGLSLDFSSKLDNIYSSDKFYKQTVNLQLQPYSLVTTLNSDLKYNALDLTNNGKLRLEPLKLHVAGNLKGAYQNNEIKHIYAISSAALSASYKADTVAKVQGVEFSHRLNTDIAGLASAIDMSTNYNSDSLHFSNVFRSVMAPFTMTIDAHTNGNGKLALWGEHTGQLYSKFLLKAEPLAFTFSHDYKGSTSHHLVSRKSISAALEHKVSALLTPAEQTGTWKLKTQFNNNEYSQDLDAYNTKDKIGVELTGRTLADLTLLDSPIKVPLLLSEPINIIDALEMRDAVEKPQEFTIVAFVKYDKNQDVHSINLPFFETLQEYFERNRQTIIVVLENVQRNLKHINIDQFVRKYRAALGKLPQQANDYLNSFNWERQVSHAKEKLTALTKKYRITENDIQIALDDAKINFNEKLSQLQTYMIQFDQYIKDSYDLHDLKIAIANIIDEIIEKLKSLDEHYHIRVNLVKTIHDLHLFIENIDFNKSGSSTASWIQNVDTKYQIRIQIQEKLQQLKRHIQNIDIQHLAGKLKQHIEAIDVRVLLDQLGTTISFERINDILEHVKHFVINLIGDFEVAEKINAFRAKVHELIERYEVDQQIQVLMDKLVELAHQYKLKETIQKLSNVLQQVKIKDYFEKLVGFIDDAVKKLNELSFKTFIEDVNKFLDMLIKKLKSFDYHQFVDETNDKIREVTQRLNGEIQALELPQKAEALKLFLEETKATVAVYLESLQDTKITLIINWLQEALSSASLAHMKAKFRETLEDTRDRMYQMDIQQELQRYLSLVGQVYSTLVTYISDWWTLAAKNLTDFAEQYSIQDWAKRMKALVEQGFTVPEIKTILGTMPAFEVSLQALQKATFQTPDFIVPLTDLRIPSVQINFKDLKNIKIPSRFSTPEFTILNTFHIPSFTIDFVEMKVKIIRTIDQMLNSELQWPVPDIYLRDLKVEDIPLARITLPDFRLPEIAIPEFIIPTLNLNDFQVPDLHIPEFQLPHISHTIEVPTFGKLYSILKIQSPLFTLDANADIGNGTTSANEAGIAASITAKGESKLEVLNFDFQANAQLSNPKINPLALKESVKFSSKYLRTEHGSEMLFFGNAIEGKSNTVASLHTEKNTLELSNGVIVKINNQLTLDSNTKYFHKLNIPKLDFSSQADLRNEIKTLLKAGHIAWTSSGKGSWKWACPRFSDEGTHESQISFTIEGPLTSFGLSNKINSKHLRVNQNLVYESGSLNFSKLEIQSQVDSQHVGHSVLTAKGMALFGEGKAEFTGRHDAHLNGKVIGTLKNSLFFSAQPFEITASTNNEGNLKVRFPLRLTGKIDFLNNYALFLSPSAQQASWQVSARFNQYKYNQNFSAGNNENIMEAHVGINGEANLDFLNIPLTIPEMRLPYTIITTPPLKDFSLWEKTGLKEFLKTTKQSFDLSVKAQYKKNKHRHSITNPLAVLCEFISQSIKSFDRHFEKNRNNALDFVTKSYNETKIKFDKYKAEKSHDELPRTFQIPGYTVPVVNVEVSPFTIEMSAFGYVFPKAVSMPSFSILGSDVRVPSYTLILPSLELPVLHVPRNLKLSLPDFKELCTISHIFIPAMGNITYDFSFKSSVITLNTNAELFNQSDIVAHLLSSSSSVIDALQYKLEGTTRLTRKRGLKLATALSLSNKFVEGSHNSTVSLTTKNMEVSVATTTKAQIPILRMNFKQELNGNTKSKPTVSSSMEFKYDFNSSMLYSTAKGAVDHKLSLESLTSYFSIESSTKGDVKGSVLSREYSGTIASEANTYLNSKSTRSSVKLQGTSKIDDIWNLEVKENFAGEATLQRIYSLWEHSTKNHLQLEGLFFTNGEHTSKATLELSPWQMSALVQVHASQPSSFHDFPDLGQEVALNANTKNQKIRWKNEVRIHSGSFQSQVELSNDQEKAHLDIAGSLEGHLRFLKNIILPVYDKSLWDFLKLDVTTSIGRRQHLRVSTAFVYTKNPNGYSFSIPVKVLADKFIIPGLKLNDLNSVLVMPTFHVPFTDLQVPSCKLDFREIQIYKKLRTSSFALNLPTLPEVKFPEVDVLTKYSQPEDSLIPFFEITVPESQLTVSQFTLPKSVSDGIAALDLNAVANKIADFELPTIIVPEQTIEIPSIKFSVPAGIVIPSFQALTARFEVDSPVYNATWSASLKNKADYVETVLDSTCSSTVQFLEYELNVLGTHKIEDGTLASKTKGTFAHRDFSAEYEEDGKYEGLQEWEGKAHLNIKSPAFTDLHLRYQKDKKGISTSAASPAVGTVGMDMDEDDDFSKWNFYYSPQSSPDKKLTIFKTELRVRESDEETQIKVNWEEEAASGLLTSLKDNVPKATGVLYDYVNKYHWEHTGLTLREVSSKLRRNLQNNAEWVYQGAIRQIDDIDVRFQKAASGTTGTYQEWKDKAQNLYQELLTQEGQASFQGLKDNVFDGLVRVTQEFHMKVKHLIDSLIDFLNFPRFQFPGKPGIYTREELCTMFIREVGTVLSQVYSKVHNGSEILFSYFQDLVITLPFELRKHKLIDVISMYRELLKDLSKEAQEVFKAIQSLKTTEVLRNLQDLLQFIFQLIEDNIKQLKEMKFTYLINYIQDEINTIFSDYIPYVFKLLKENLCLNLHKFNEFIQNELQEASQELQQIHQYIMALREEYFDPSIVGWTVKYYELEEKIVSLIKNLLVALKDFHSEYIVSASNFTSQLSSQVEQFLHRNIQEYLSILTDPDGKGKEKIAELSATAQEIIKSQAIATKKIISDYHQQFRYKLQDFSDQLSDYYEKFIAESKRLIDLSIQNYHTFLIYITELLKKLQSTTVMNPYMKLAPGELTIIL

As for `Cn1nc(C(=O)NC2CCN(CCN3CCCC3)CC2)c2ccc(N3CCCCCC3)nc21` [Compound A27], the “lipid accumulation (Nile Red fluorescence)” value with HepG2 cells (HepG2 cells, A27 at various concentrations for 3 days in fatty medium) was “dose-dependent decrease in lipid accumulation”. The EC50 in the data set on HepG2 cells (Homo sapiens, HepG2, 72 h, read-out: half effective concentration (EC50), inhibition of formation of steatosis) is ~0.5 µM; in the data set on HBV it was ~1 µM; in the data set on SARS-CoV-2 [2] it was 0.803 µM; in data set [4], 7.9 µM; in the data set with RSV-luc5 virus, 1.1 µM. The tolerability in mice entry in [1] (4 weeks) was “tolerated A27 well”. Moreover, the “hepatic steatosis measured by liver ultrasound” value in data set [1] (high fat diet for 4 weeks, versus vehicle) is “reduces hepatic steatosis”. Further, the “combination effect with polymerase inhibitor nucleoside analog” value in the data set on SARS-CoV-2 [3] (with a polymerase inhibitor nucleoside analog (e.g. EIDD2801)) is recorded as “additive”. The “combination effect with protease inhibitors” value in the data set with SARS-CoV-2 [3] (with protease inhibitors against SARS-CoV-2 (e.g. PF-07321332)) was “synergistic”. Moreover, the “plaque size compared to oseltamivir treated wells” value in the data set with PR8 virus (ATCC-VR-1469) was “smaller-sized plaques”. For the same compound, the “binding to apolipoprotein B (apoB)” value at apolipoprotein B (apoB) is recorded as “can bind”. Also, the toxicity entry (in the data set on U87-MG cells; in data set [5]) was “without any evidence of toxicity” each time.
